Key:
human skin cells = experiment: Synthesis of filaggrin by skin cells, Western blotting; type: cell-based; conditions: beta-glucan 0.01%, 2 days treatment, FIG. 4
Description: In order to examine production of a natural moisturizing factor (NMF) having an important effect on skin moisturization, synthesis of filaggrin, which is a precursor of the natural moisturizing factor, was tested on human skin cells. First, skin cells were introduced into a culture flask and allowed to adhere to the bottom of the flask. Then, cells were cultured for 2 days by co-addition of 35-S-methionine upon treatment of a test material. After the cultivation was complete, the culture medium was removed and the cells were dissolved in phosphate buffered saline (PBS) containing 2% sodium dodecyl sulfate and 20 mM dithiothreitol (DTT). After the skin cells were cultured, treatment of the cells with the test material was carried out for 2 days. After the test material treatment was complete, the medium was removed, and only the cells were taken and disrupted using an ultrasonic disintegrator to thereby obtain only a protein. Using the thus-obtained protein, an amount of synthesized filaggrin was determined by Western blotting analysis. FIG. 4 is a graph showing an expression amount of filaggrin by Western blotting analysis. Clofibrate was used as a positive control, and beta-glucan was added to a concentration of 0.01% for the test.

hairless mice = experiment: Skin moisture loss (TEWL) recovery after acetone-induced skin barrier damage; type: in vivo
Description: This experiment was carried out to evaluate effects of beta-glucan on recovery of a skin barrier function loss due to long-term skin damage.
A barrier function of dorsal skin of experimental animals was damaged by periodic application of acetone to the dorsal parts of young hairless mice (10 weeks old) for 3 consecutive days three times a day. Trans-epidermal water loss (TEWL) was measured in the experimental animals. For only the mice having skin with more than 40 g/m′/hr of TEWL, a vehicle (propylene glycol:water=5:5) and a sample containing 0.2% beta-glucan of Example 1 were applied at a dose of 200 μl per 5 cm^2 of a skin area for 3 consecutive days three times a day, and TEWL was measured periodically.

Staphylococcus aureus = experiment: Bacterial inhibition in mouse model, survival after S. aureus septic shock; type: in vivo, mice; conditions: 1 mg/mouse peritoneally 3 days and 1 day prior, 1×10^9 S. aureus intravenously, FIG. 6
Description: Skin is directly vulnerable to or may suffer from single infection with various bacteria and about 90% of atopic patients suffer from secondary infections with bacteria such as Staphylococcus spp. Therefore, there is a need for bacterial inhibition and amelioration of infectious diseases. Prior to the test of skin itching due to bacterial infections, this experiment was carried out to test whether beta-glucan has direct synergistic effects on antibacterial activity and antibiotic activity in vivo, using a mouse model.
Erythromycin was used as an antibiotic and Staphylococcus aureus, one of staphylococci as a major cause of skin infections, was used as the test bacteria. Each experimental group was composed of 6 to 7 mice per group. Experiments were carried out as follows.
1) 3 days and I day prior to bacterial challenge, 1 mg/mouse of saline, antibiotic, beta-glucan, or a beta-glucan/antibiotic mixture was peritoneally injected into mice.
2) 30 min prior to bacterial administration, 18 mg/kg of the antibiotic was subcutaneously injected into the mice.
3) Then, 1×10^9 of bacteria (S. aureus) were intravenously injected to induce septic shock.
4) Finally, a survival rate (%) of the animals was periodically confirmed every 12 hours.

[1] = at 48 hours after the bacterial infection
[2] = one week after the bacterial infection

Row | Compound | synthesis of filaggrin in skin cells (human skin cells) | recovery from skin barrier damage compared to vehicle group (hairless mice; 0.2% beta-glucan of Example 1, 200 μl per 5 cm^2, 3 days three times a day, FIG. 5) | recovery of the trans-epidermal water loss (hairless mice; after 10 hours, 0.2% beta-glucan of Example 1 topical) [%] | survival rate (Staphylococcus aureus; [1]) | survival rate (Staphylococcus aureus; [2])
1 | beta-1,6-branched-beta-1,3-glucan [beta-glucan] | significantly increased | rapid recovery | ≥ 50 | 40% | all dead
2 | CC[C@H]1OC(=O)[C@H](C)[C@@H](O[C@H]2C[C@@](C)(OC)[C@@H](O)[C@H](C)O2)[C@H](C)[C@@H](O[C@@H]2O[C@H](C)C[C@H](N(C)C)[C@H]2O)[C@](C)(O)C[C@@H](C)C(=O)[C@H](C)[C@@H](O)[C@]1(C)O [antibiotic, Erythromycin, reference compound] | – | – | – | all killed | all dead
